# Entries after “also recorded” stand apart in the source; their conditions may differ.
# What was measured:
# [1] = cardiovascular study in dogs; type: in vivo; conditions: dogs
# [2] = cardiovascular study in rats; type: in vivo; conditions: normally hypertensive rats
# [3] = pretoxicity (LD-O, maximum non-lethal dose); type: in vivo, male mice
# Procedure: (§1) In the following tests, CRL 40 875, in solution in distilled water, was administered intraperitoneally in a volume of 20 ml/kg to male mice and 5 ml/kg to male rats.
# (§2) In the following tests, CRL 40 897, in solution in distilled water (pH 4), was administered intraperitoneally in a volume of 20 ml/kg to male mice and in a volume of 5 ml/kg to male rats, the procedures being those given above for CRL 40 875.
# (§3) In the tests undertaken, CRL 40 912, in solution in distilled water (pH 4.5), was administered intraperitoneally in a volume of 20 ml/kg to male mice and in a volume of 5 ml/kg to male rats, the procedures being those given above for CRL 40 875.
# (§4) The toxicological and neuropsychopharmacological studies undertaken in accordance with the procedures described above for CRL 40 875 enabled the following observations to be made: […]
# [4] = overall behavior and reactivities in mice; type: in vivo, male mice; conditions: mice
# Procedure: as §1
# Groups of three mice are observed before and then 15 minutes, 30 minutes, 1 hour, 2 hours, 3 hours and 24 hours after the administration of CRL 40 875.
# as §2, §4
# [5] = interaction with apomorphine in mice; type: in vivo, male mice; conditions: mice
# Procedure: as §1
# Groups of 6 mice receive CRL 40 875 0.5 hour before the subcutaneous injection of 1 or 16 mg/kg of apomorphine.
# as §2, §3
# [6] = interaction with apomorphine in rats; type: in vivo, male rats; conditions: i.p., 0.5 mg/kg apomorphine
# Procedure: as §1
# CRL 40 875 is administered to groups of 6 rats 0.5 hour before the subcutaneous injection of 0.5 mg/kg of apomorphine.
# as §2, §3
# [7] = interaction with amphetamine; type: in vivo, male rats; conditions: i.p.; 2 mg/kg amphetamine; rats
# Procedure: as §1, §2, §3
# [8] = interaction with reserpine; type: in vivo, male mice; conditions: i.p., mice
# Procedure: as §1
# Four hours after the intraperitoneal injection of 2.5 mg/kg of reserpine, groups of 6 mice receive CRL 40 875. The effects on the temperature and ptosis are observed.
# as §2, §3
# [9] = interaction with oxotremorine; type: in vivo, male mice
# Procedure: as §1
# CRL 40 875 is administered to groups of 6 mice half an hour before the intraperitoneal injection of 0.5 mg/kg of oxotremorine.
# as §2, §3
# four plate test = type: in vivo, male mice; conditions: i.p., mice
# Procedure: as §1
# (§5) The test is performed on groups of 10 mice half an hour after the administration of CRL 40 875.
# as §2
# [10] = action on the spontaneous motility; type: in vivo, male mice; conditions: mice
# Procedure: as §1
# Half an hour after they have received CRL 40 875, the mice (6 per dose, 12 control animals) are placed in an actimeter, where their motility is recorded for 30 minutes.
# as §2
# [11] = action on the intergroup aggressiveness; type: in vivo, male mice; conditions: 0.5 mg/kg and 2 mg/kg i.p., mice
# Procedure: as §1
# After they have stayed for 3 weeks in the two halves of a cage divided by an opaque partition, groups of 3 mice receive CRL 40 875. Half an hour later, the two groups from the same cage are brought together by removal of the partition, and the number of fights which occur in 10 minutes is noted.
# as §2, §3
# [12] = motility reduced by habituation to the enclosure; type: in vivo, male mice; conditions: i.p.
# Procedure: as §1
# After they have stayed in the actimeters for 18 hours, the mice (6 per dose, 12 control animals) receive CRL 40 875. They are immediately returned to their respective enclosures and, half an hour later, their motility is recorded for 30 minutes.
# as §2, §3
# [13] = motility reduced by hypoxic aggression; type: in vivo, male mice; conditions: i.p.
# Procedure: as §1
# Half an hour after they have received CRL 40 875, the mice (10 per dose, 20 control animals) are subjected to acute hypobaric anoxia [pressure reduction of 600 mm Hg (i.e. about 8×10^4 pascals) in 90 seconds; release of vacuum in 45 seconds] and are then placed in an actimeter, where their motility is recorded for 10 minutes.
# as §2
# [14] = asphyxiant anoxia (gallamine triiodoethylate); type: in vivo, male mice; conditions: i.p., mice
# Procedure: as §1
# Groups of 20 mice receive CRL 40 875 half an hour before the intraperitoneal administration of 32 mg/kg of gallamine triidoethylate (which is a reference curarizing agent).
# as §2, §3
# [15] = clinical trials, treatment of depressions; type: in vivo; conditions: man
# Description: In clinical trials, good results were obtained on man with CRL 40 875 (Example 1), CRL 40 912 (Example 2) and CRL 40 897 (Example 3) in the treatment of depressions.
# [16] = neuropsychopharmacological study, overall findings; type: in vivo, mice, rats
# Procedure: as §1, §2, §3, §4
# traction test = type: in vivo, male mice; conditions: i.p., mice
# Procedure: as §1, §5, §2
# electric shock = type: in vivo, male mice; conditions: i.p., mice
# Procedure: as §1, §5, §2
# α-adrenergic = α-adrenergic stimulation; conditions: in vivo; hydrochloride
# [17] = 64 mg/kg and 32 mg/kg i.p., mice
# [18] = 128 mg/kg i.p., groups of three mice
smiles,measurement,setting,value
"Cc1ccc(C2CN(C(C)C)CCO2)cc1.Cl (centres unmarked) [CRL 40 875, 2-p-tolyl-4-isopropylmorpholine hydrochloride]",effect on blood pressure and heart rate,[1],hypotensive and tachycardiac agent
same,cardiovascular parameters,[2],does not modify the cardiovascular parameters
same,mortality,[3]; [17],no mortality
same,signs of toxicity,[3]; [17],abdominal cramp and trembling
same,mortality,[3]; [18],death (of the 3 animals in the group)
same,signs of toxicity,[3]; [18],thick saliva and convulsions
same,time to death,"[3]; 128 mg/kg i.p., mice",10 min
same,duration of hypothermia,[4]; 2 mg/kg i.p.,0.5 h
same,hypothermia (temperature change),[4]; 2 mg/kg i.p.,-1.5 °C
same,duration of hypothermia,[4]; 8 mg/kg i.p.,1 h
same,duration of piloerection,[4]; 8 mg/kg i.p.,3 h
same,hypothermia (temperature change),[4]; 8 mg/kg i.p.,-3.9 °C
same,"piloerection, animals affected",[4]; 8 mg/kg i.p.,2/3
same,duration of mydriasis,[4]; 32 mg/kg i.p.,0.5 h
same,duration of reduction in the reactivity to touch and muscular tonus,[4]; 32 mg/kg i.p.,2 h
same,hypothermia (temperature change),[4]; 32 mg/kg i.p.,-4.1 °C
same,mydriasis,[4]; 32 mg/kg i.p.,moderate mydriasis
same,"piloerection, animals affected",[4]; 32 mg/kg i.p.,2 out of 3
same,intrinsic hypothermic effect,[5]; i.p.,exerts an intrinsic hypothermic effect
same,effect on righting behavior and stereotypies,"[5]; i.p., apomorphine",does not modify the righting behavior and the stereotypies
same,effect on the hypothermia induced by apomorphine,"[5]; strong dose (32 mg/kg) i.p., 16 mg/kg apomorphine",partially opposes the hypothermia induced by 16 mg/kg of apomorphine
same,effect on stereotypies induced by apomorphine,[6],does not substantially impair the stereotype behavior induced by apomorphine in rats
same,effect on stereotypies induced by amphetamine,[7],stereotypies induced by amphetamine are not modified
same,effect on the ptosis induced by reserpine,[8],without modifying the ptosis induced by reserpine
same,effect on the hypothermia induced by reserpine,[8]; strong dose,aggravates the hypothermia induced by reserpine
same,effect on peripheral cholinergic symptoms (defecation) after oxotremorine,"[9]; 0.5, 2, 8 and 32 mg/kg i.p., mice",increases the proportion of mice which exhibit defecation
same,effect on the trembling due to oxotremorine,"[9]; 8 and 32 mg/kg i.p., mice",seems to increase the duration of the trembling due to oxotremorine
same,hypothermic effect,"[9]; i.p., mice",exerts a hypothermic effect
same,effect on the temperature drop caused by oxotremorine,"[9]; strong dose, i.p.",partially opposes the temperature drop caused by oxotremorine
same,number of punished passes,four plate test,does not cause an increase in the number of punished passes
same,hypomotility,[10]; 8 and 32 mg/kg i.p.,very significant
same,minimal effective dose,"[10]; Mus musculus, ip, read-out: dose as from which motility is reduced",≥ 2 mg/kg
same,effect on number of fights,[11],suppression of the fights
same,effect on the motor activity,[11],only a moderate effect on the motor activity
same,resumption in the activity of mice accustomed to their enclosure,[12],does not cause a resumption in the activity of mice accustomed to their enclosure
same,motor recovery in mice after reduced-pressure enclosure,[13],does not cause an improvement in the motor recovery
same,time taken for convulsions and death to occur following asphyxiant anoxia,[14],delays the time taken for convulsions and death to occur
same,results in the treatment of depressions,[15],good results
same,variation of sedative effects with dose,[16]; in vivo,"increase continuously with the dose administered, up to a maximum value, and then decrease continuously and progressively as the dose increases"
same,antidepressant effects,"[16]; strong doses, hydrochloride",antidepressant effects (antagonism of the hypothermia induced by apomorphine and oxotremorine); also recorded: antidepressants at strong doses
same,sedative effects,"[16]; weak doses where stated, hydrochloride","sedative effects (hyporeactivity, hypothermia, hypomotility, significant reduction of aggressiveness, delayed onset of asphyxiant convulsions); also recorded: sedative effects (hypomotility, hypothermia, reduction of intergroup aggressiveness"
same,major motor incapacity,traction test,does not cause major motor incapacity
same,effect on electric shock,electric shock,does not modify the convulsant effects of electric shock
same,α-adrenergic stimulant effect,α-adrenergic,"signs of peripheral α-adrenergic stimulation (salivation, piloerection, trembling); also recorded: stimulant effects, especially of the α-adrenergic type"

# Reference: patent US4714699A, “2-tolylmorpholine derivatives and pharmaceutical compositions” (Societe Anonyme Dite: Laboratoire L. Lafon, priority 1983, dated 1987)
